Measurements: patent US20170224654A1, “PHARMACEUTICAL COMPOSITIONS AND METHODS FOR COUNTERING CHEMOTHERAPY INDUCED CARDIOTOXICITY” (Stem Cell Theranostics, Inc., priority 2016, published 2017)

Experiments:
[1] = tested on: human induced pluripotent stem cell-derived cardiomyocytes; assay: Electrophysiological activity with doxorubicin (active electrodes, MEA); type: cell-based; details: for decrease in the number of active electrodes: 24 hours
Method: Samples were either mock-treated with 0.1% DMSO, treated with 1 μM doxorubicin, or co-treated with 1 μM doxorubicin and various concentrations of vitexin (e.g., 11.6 μM, 37 μM, or 116 μM). Following treatment, the percentage of active electrodes in each sample was measured for 72 hours. Percentage of active electrodes was quantified and graphed in a time course (FIG. 28A). The average number of active electrodes per well was quantified and graphed at 30 hours after the treatment (FIG. 28B, n=6, standard deviation is shown as error bars).

[2] = tested on: induced pluripotent stem cell-derived cardiomyocytes; assay: Acute toxicity on electrophysiology (MEA beat period, field potential duration); type: cell-based; details: lower drug concentration, at least 20 minutes
Method: Samples were either mock-treated with 0.1% DMSO, or treated with increasing concentrations of the indicated drug for at least 20 minutes. Cardiomyocytes were treated with the hERG potassium channel blocker E4031 as a control. Following treatment, the beat period and field potential duration (FPD) were measured in each sample using the MEA.

[3] = tested on: cardiomyocytes derived from human induced pluripotent stem cells; assay: Doxorubicin-induced apoptosis (TUNEL), 48 hours; type: cell-based; details: 1 μM doxorubicin, VIT 115 μM, Dex 160 μM, AMB 0.76 μM, NAC 50 μM, KAE 17 μM, MES 10 μM
Method: Following treatment, the samples were incubated with a TUNEL dye to indicate apoptosis-positive cells, and a second dye to identify cell nuclei.

patient = assay: Patient treatment examples (echocardiogram / electrocardiogram); type: in vivo, human; details: for QT prolongation (in words): doxorubicin (5 mg/mL) given with the protective agent; for cardiac dysfunction in the patient: protective agent 100 mg co-formulated with, or 24 hours before, doxorubicin 10 mg
Method: A patient, with a history of heart disease, is diagnosed with breast cancer. Due to an increased risk for heart failure, the patient is unable to receive the standard treatment regimen of doxorubicin, which is known to induce cardiotoxicity. Instead, the caregiver administers a co-formulation of doxorubicin (10 mg) and vitexin (100 mg). An echocardiogram is performed and blood flow rate is measured to determine if the therapy has a cardiotoxic effect in the patient.
A patient is diagnosed with liver cancer. […] The patient presents with a 20 ms QT prolongation. […] The patient is able to continue receiving treatment over several weeks after which a tissue biopsy is performed to confirm the liver cancer has been eradicated.
A patient is diagnosed with stage II lung cancer, and presents with bradycardia. Due to an increased risk for heart failure, the patient is unable to receive the standard treatment regimen of doxorubicin, which is known to affect cardiac contraction and induce bradycardia. Instead, the caregiver administers a co-formulation of doxorubicin (10 mg) and myricetin (100 mg). An electrocardiogram is used to monitor the patient's heart rate. […] The lung cancer is down-staged to stage 1, and the cancer is successfully removed with surgery.
A patient is diagnosed with stage II lung cancer, and presents with bradycardia. Due to an increased risk for heart failure, the patient is unable to receive the standard treatment regimen of doxorubicin, which is known to affect cardiac contraction and induce bradycardia. Instead, the caregiver administers myricetin (100 mg) 24 hours before administration of doxorubicin (10 mg). An electrocardiogram is used to monitor the patient's heart rate. […] The lung cancer is down-staged to stage 1, and the cancer is successfully removed with surgery.

A549 cells (lung cancer) = assay: Cell viability with doxorubicin (CellTiter-Glo); type: cell-based; details: co-treated with increasing concentrations of doxorubicin, 72 hours
Method: A549 cells (lung cancer) were cultured for 1 day before performing experiments. […] XLFit was used for curve fitting.

[4] = tested on: MDA-MB-231 breast cancer cells; assay: Cell viability with doxorubicin (CellTiter-Glo); type: cell-based; details: co-treated with increasing concentrations of doxorubicin, 72 hours
[5] = tested on: induced pluripotent stem cell-derived cardiomyocytes; assay: Long term toxicity on electrophysiology (active electrodes, MEA); type: cell-based; details: various concentrations, at least 5 days
Method: Samples were either mock-treated with 0.1% DMSO, or treated with various concentrations of the indicated drug. Following treatment, the percentage of active electrodes in each sample was measured for at least 5 days. Percentage of active electrodes was quantified and graphed in a time course.

[6] = tested on: human induced pluripotent stem cell-derived cardiomyocytes; assay: Long-term mitochondrial health (TMRM), 7 days; type: cell-based; details: 1 μM doxorubicin alone or with dexrazoxane or vitexin
Method: Following treatment, the samples were incubated with a tetramethylrhodamine methyl ester (TMRM) dye to indicate mitochondrial health. […] Representative images are presented for each sample, wherein loss of TMRM signal represents mitochondrial toxicity.

TOPOIIα = molecular target: T1, TOPOIIα (Homo sapiens, UniProt P11388); assay: kDNA decatenation assay; type: biochemical
T1 construct: purchased Inspiralis

[7] = tested on: cardiomyocytes derived from human induced pluripotent stem cells; assay: Doxorubicin-induced mitochondrial toxicity (TMRM-negative cells), 48 hours; type: cell-based; details: 1 μM doxorubicin, KAE 17 μM, AMB 0.76 μM, MES 10 μM, NAC 50 μM, Dex 160 μM, VIT 115 μM
Method: Following treatment, the samples were incubated with a tetramethylrhodamine methyl ester (TMRM) dye to indicate mitochondrial health, and a second dye to identify cell nuclei.

[8] = tested on: Human iPSC-derived cardiomyocytes; assay: Cytotoxicity of MYR analogs to cardiomyocytes; details: for cytotoxicity / toxic effects to cardiomyocytes (in words): at or below 100 μM as stated
[9] = tested on: Doxorubicin treated human iPSC-derived cardiomyocytes; assay: iPSC-CM protection of MYR analogs against doxorubicin; type: cell-based; details: discussion of Table 1
TOPOIIβ = molecular target: T2, TOPOIIβ (Homo sapiens, UniProt Q02880); assay: kDNA decatenation assay; type: biochemical
T2 construct: purchased Inspiralis

[10] = tested on: TOPOII enzymes (TOPOIIα and TOPOIIβ); assay: kDNA decatenation assay, TOPOIIα and TOPOIIβ jointly; type: biochemical; details: discussion of Table 1
Method: 200 ng of kinetoplast DNA (kDNA) was incubated with one enzymatic unit of TOPOIIα or TOPOIIβ enzyme (Inspiralis) and with various concentrations of MYR or DEX at 37° C. for 30 min. The reaction was then separated on 1% agarose gel for visualization of decatenated DNA (bottom band). The efficiency of catalytic inhibition was quantified by measuring the relative intensity of the band.

[11] = tested on: Human iPSC-derived cardiomyocytes; assay: Mitochondrial toxicity imaging (TMRM) after doxorubicin, 2 days; type: cell-based; details: 1.25 μM doxorubicin + 79 μM myricetin vs 1.25 μM doxorubicin alone
Method: Following treatment, the samples were incubated with a tetramethylrhodamine methyl ester (TMRM) dye to indicate mitochondrial health, and Hoechst 33342 to identify cell nuclei. Cells were imaged using the INCell Analyzer2200.

[12] = tested on: topoisomerase IIβ protein in human iPSC-derived cardiomyocytes; assay: TOPOIIβ protein level (immunostaining), 24 hours; type: cell-based; details: 100 μM
Method: To further distinguish molecular mechanisms of MYR from those of DEX and also to determine whether the inhibitory effects of MYR on TOPOII observed in the decatenation assays above is due to degradation of TOPOII proteins, human iPSC-derived cardiomyocytes were treated with DMSO, DEX (100 μM), or MYR (100 μM) for 24 hours, and immunostained with antibody against topoisomerase IIβ (BD Biosciences).
Cells were imaged using INCell Analyzer2200 (GE) and […] protein levels were quantified. Student T-Test (unpaired, two-tailed) was used to determine the significance of the difference.

[13] = tested on: sorafenib treated cardiomyocytes; assay: Sorafenib-induced contractile dysfunction; type: cell-based, human; details: 5 μM sorafenib
TOPOIIβ mRNA expression = assay: mRNA expression level in cardiomyocytes; type: cell-based
TOPOIIα mRNA expression = assay: mRNA expression level in cardiomyocytes; type: cell-based; details: DOX plus myricetin
[14] = tested on: Human iPSC-derived cardiomyocytes; assay: DOX-induced contractility dysfunction (Pulse videos), 48 hours; type: cell-based; details: DOX 0.5 μM plus MYR 100 μM, compared to DEX 100 μM
cardiomyocytes = assay: Bortezomib-induced cell death; type: cell-based, human; details: 100 μM myricetin
[15] = tested on: Human iPSC-derived cardiomyocytes; assay: DOX-induced DNA double strand break (γH2AX immunostaining); type: cell-based; details: DOX 0.5 μM plus 100 μM agent, 48 hours
[16] = tested on: human induced pluripotent stem cell-derived cardiomyocytes (iPSC-CM)

T2 sequence (Q02880 whole entry): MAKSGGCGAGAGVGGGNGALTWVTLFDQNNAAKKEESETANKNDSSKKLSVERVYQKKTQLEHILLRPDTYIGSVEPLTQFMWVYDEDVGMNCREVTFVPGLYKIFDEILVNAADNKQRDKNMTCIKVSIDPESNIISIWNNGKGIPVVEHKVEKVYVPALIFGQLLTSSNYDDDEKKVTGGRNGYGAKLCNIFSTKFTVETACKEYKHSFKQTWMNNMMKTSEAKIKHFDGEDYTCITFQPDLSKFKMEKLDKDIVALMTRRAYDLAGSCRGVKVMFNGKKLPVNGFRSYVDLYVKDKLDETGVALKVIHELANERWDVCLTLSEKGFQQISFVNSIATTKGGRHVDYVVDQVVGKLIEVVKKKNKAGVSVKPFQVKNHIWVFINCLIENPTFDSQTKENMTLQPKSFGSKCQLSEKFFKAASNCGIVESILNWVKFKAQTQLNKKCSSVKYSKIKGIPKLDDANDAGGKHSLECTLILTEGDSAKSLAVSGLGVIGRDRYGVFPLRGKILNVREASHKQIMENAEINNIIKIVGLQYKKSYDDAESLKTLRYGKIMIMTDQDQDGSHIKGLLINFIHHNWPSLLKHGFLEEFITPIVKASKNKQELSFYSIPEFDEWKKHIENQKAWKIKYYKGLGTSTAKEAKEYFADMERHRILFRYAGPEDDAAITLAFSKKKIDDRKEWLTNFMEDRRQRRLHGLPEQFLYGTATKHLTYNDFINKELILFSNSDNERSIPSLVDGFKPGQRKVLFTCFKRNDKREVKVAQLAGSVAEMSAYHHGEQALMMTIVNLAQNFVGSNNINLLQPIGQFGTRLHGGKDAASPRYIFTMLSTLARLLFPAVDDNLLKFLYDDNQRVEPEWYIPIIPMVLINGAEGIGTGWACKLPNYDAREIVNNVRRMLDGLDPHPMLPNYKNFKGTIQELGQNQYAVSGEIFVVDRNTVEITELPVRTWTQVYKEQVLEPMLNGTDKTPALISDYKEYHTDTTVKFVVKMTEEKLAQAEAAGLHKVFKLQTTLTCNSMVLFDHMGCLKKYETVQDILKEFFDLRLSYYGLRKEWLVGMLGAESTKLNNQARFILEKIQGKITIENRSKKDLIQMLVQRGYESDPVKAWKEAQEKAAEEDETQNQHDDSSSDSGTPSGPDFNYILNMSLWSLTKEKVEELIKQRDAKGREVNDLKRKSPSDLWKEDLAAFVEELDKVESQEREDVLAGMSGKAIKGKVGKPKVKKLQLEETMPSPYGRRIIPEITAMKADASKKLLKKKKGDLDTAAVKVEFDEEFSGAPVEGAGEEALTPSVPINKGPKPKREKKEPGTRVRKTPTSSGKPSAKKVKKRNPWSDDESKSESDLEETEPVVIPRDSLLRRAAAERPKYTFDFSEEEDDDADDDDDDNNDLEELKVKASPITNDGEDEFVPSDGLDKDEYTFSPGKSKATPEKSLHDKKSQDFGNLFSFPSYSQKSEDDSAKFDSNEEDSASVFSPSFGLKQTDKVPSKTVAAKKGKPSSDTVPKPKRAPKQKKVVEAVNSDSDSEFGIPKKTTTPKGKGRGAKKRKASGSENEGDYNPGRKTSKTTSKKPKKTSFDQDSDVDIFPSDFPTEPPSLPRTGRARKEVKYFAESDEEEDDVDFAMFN
T1 sequence (P11388 whole entry): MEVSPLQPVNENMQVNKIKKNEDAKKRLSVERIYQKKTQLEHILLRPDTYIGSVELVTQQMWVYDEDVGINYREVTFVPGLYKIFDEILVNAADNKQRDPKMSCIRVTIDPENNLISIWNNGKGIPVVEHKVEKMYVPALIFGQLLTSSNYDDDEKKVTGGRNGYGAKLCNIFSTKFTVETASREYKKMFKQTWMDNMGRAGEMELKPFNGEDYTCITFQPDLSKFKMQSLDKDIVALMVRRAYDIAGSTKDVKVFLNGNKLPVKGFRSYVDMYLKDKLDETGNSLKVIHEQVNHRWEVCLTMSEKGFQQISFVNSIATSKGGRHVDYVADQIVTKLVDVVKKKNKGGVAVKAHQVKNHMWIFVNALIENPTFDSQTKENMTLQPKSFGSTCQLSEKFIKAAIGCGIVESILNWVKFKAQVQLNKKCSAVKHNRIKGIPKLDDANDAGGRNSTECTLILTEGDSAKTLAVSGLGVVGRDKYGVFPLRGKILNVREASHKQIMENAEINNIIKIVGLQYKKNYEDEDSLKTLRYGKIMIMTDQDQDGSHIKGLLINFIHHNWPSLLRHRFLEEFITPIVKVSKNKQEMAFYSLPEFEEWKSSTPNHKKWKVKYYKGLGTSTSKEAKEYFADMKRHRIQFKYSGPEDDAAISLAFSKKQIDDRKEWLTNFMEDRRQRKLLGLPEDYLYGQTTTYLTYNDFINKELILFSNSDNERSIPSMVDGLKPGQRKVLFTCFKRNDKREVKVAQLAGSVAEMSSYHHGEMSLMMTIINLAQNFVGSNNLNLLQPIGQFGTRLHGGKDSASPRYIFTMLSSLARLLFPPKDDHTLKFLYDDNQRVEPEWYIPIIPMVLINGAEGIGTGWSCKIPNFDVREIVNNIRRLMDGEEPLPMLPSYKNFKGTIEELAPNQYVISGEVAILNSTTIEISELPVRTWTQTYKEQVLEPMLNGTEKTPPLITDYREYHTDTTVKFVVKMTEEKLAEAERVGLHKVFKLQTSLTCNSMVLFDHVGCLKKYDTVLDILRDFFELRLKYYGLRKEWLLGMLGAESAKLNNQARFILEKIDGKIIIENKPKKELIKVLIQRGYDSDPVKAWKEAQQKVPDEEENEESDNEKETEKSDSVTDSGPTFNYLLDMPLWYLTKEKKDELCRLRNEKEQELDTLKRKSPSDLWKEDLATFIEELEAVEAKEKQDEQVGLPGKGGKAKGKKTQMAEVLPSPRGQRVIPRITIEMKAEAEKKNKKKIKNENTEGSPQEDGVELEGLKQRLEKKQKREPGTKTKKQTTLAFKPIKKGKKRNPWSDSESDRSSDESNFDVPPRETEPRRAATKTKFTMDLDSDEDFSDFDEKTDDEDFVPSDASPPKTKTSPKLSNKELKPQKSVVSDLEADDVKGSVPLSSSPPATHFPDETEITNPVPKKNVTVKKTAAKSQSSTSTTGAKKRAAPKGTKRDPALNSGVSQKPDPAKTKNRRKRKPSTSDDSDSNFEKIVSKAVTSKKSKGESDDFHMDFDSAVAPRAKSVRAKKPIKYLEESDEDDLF

## O=c1cc(-c2ccc(O)cc2)oc2c([C@@H]3O[C@H](CO)[C@@H](O)[C@H](O)[C@H]3O)c(O)cc(O)c12 [vitexin]
[1]; 1 μM doxorubicin and 11.6 μM vitexin
  decrease in the number of active electrodes: ~50%
[1]; 1 μM doxorubicin and 37 μM vitexin
  decrease in the number of active electrodes: ~25%
[1]; 1 μM doxorubicin and 116 μM vitexin
  decrease in the number of active electrodes: ~0%
[1]; 1 μM doxorubicin and 116 μM vitexin, 30 hours
  average number of active electrodes: about 10 active electrodes
[2]
  beat period or field potential duration, as compared to control samples: no appreciable difference
[3]
  decrease in apoptosis vs doxorubicin alone: at least 60%
patient
  QT prolongation (in words): no signs of QT prolongation
  cardiac dysfunction in the patient: no indication of cardiac dysfunction
A549 cells (lung cancer)
  percentage of cell death vs doxorubicin in the absence of a protective agent: no significant difference
[4]
  percentage of cell death vs doxorubicin in the absence of a protective agent: no significant difference
[5]
  number of active electrodes relative to the mock-treated sample (in words): no observable decrease
[6]
  mitochondrial toxicity / protection (TMRM-positive cells): improved long term mitochondrial protection

## O=c1c(O)c(-c2ccc(O)cc2)oc2cc(O)cc(O)c12 [Compound 7, 3,5,7,4′-tetrahydroxyflavone]
TOPOIIα
  TOPOIIα Inhibition: −
[7]
  decrease in mitochondrial toxicity vs doxorubicin alone: at least 60%
[8]; 100 μM
  Toxicity: −
[8]; listed as Kaempferol
  cytotoxicity / toxic effects to cardiomyocytes (in words): without some level of cytotoxicity at 100 μM
[8]; listed as kaempferol
  cytotoxicity / toxic effects to cardiomyocytes (in words): did not show toxic effects below 100 μM
[9]
  cardioprotection (in words): moderate level of cardioprotection
A549 cells (lung cancer)
  percentage of cell death vs doxorubicin in the absence of a protective agent: no significant difference
[4]
  percentage of cell death vs doxorubicin in the absence of a protective agent: no significant difference
TOPOIIβ
  TOPOIIβ Inhibition: −
[5]
  number of active electrodes relative to the mock-treated sample (in words): no observable decrease
[10]
  TOPOII (TOPOIIα and TOPOIIβ) inhibition (in words): did not exhibit any inhibitory effect

## O=c1c(O)c(-c2cc(O)c(O)c(O)c2)oc2cc(O)cc(O)c12 [Compound 1, 3,5,7,3′,4′,5′-hexahydroxyflavone]
[11]
  TMRM signal (protection against doxorubicin-induced mitochondrial toxicity): greater TMRM signal
[12]
  topoisomerase IIβ protein levels: no effect
[13]
  correction of cardiac dysfunction: more than 80%
TOPOIIβ mRNA expression; DOX plus myricetin
  TOPOIIβ mRNA expression: restored to a level close to normal
TOPOIIβ mRNA expression; agent alone, DOX at 24 and 48 hours
  TOPOIIβ mRNA expression: did not have any effect
patient
  QT prolongation (in words): no signs of QT prolongation
  cardiac dysfunction in the patient: no indication of cardiac dysfunction
TOPOIIα mRNA expression
  TOPOIIα mRNA expression: further repressed
[14]
  correction of DOX-induced contractile dysfunction (beating, duration, peak height): significantly corrected
cardiomyocytes
  rescue of bortezomib-induced cardiotoxicity: rescued bortezomib-induced cardiotoxicity
TOPOIIβ; 37° C., 30 min, n=3, read-out: IC50 of TOPOIIβ enzyme activity
  IC50: 2070 nM
[15]
  protection against DOX-induced DNA double strand break (γH2AX-positive cells): significant protection
[16]
  number of total cells, as compared to mock-treated control: no significant difference
